Reference: PubChem BioAssay AID2060893 (Molecular Pharmacology Branch, DTP, NCI, 2025)
pIC50: −log10 of the molar value.

Test system: K86415-001-R-J1-PDC complex spheroids, viability
Assay: Anticancer human tumor K86415-001-R-J1-PDC patient-derived lung adenocarcinoma cell line growth inhibition [RAS]
Conditions: for pIC50: curve of first compound; for viability, T/C: stronger effect = lower value
Source text: RAS pathway inhibitors in Combinations in Complex Spheroids
A high-throughput screen of multi-cell type tumor spheroids was designed to identify active combinations of RAS pathway inhibitors and targeted small molecules. Complex spheroids include a stromal component modeled by human endothelial cells (HUVEC) and fibroblasts modeled by human mesenchymal stem cells (MSCs). The concentration ranges selected for each drug and investigational agent were based upon clinically achievable concentrations if the clinical Cmax of the agent was known.
Compounds. The drugs and investigational agents: abemaciclib (NSC768073), cobimetinib (NSC768068), divarasib (GDC6063, NSC841802), docetaxel (NSC628503), GDC-1971 (RLY-1971, NSC841576), gemcitabine (NSC613327), inavolisib (NSC800729), ipatasertib (NSC767898), KB-0742 (NSC834161), MRTX-1133 (NSC836407), osimertinib (NSC779217), RMC-4630 (NSC839698), RMC-6236 (NSC851965), RMC-6291 (NSC852671), Ro-3306 (NSC812927), sapanisertib (NSC764658), SN-38 (NSC673596), staurosporine (NSC755774), SY5609 (NSC837396), and tovorafenib (DAY101, NSC766906), were obtained from the National Cancer Institute (NCI) Developmental Therapeutics Program Chemical Repository. The FDA-approved anticancer drug set is available from the NCI Developmental Therapeutics Program. […] The stock solutions were prepared in dimethyl sulfoxide (DMSO, Sigma-Aldrich, St. Louis, MO, cat. D2650) at 800-fold the tested concentration and stored at -70 degrees C prior to their use. All drugs and investigational agents were tested over a range starting from a high concentration at or near the clinical Cmax and decreasing in half-log increments. If the clinical Cmax for an agent had not been determined, the highest concentration tested was 10 microM.
Cell Culture. All cells were maintained in an incubator at 37 degrees C and 5% CO2 with 95% humidity. The PDC lines were cultured according to standard operating procedures established by the NCI PDMR. All PDCs were thawed and cultured in Matrigel-coated flasks prepared with a working solution of 1X Ham's F-12 nutrient mix, without supplementation (Invitrogen, Waltham, MA, cat. 11765054), 100 U/mL penicillin-streptomycin (Invitrogen, cat. 15140122), and 2.5% Matrigel (Corning Inc., Corning, NY, cat. 354248) for the first three passages. The 362531-283-R-J2-PDC and 782815-120-R-J1-PDC lines were cultured in 6C/Colon 1B media, which includes advanced DMEM/F-12 (Thermo Fisher Scientific, cat. 12634028), 10 mM HEPES (Thermo Fisher Scientific, cat. 15630080), 1X GlutaMAX supplement (Thermo Fisher Scientific, cat. 35050061), 0.1 mg/mL primocin (InvivoGen, San Diego, CA, cat. ant-pm-2), 10% defined fetal bovine serum, heat inactivated (HyClone Laboratories Inc., Logan, UT, cat. SH30070.03HI), 50% L-WRN conditioned media (ATCC, cat. CRL-3276), 1.25 mM N-Acetyl-L-cysteine (Sigma-Aldrich, cat. A9165), 10 mM nicotinamide (Sigma-Aldrich, cat. N0636), 1X B-27 supplement (Thermo Fisher Scientific, cat. 17504044), 1X N-2 supplement (Thermo Fisher Scientific, cat. 17502048), 50 ng/mL human EGF (Thermo Fisher Scientific, cat. PHG0311), and 10 microM Y-27632 dihydrochloride (Tocris Bioscience, cat. 1254). The K12877-001-R-J1-PDC line was cultured in 6I media, which includes all 6C/Colon 1B media plus 10 ng/mL human FGF-10 (PeproTech, cat. 100-26), 1 ng/mL human FGF-2 (PeproTech, cat. 100-18B), 1 µM prostaglandin E2 (Tocris Bioscience, cat. 2296), […] hydrocortisone (Sigma-Aldrich, cat. H4001), and […] bovine insulin (Sigma-Aldrich, cat. I6634). The K86415-001-R-J1-PDC line was cultured in 6D media, which includes all 6C/Colon 1B media components minus the L-WRN conditioned media. The 485176-168-R4-J1-PDC was cultured in PANC media, which includes all 6C/Colon 1B media plus 100 ng/mL human FGF-10 (PeproTech, cat. 100-26), 500 nM SB-431542 (Selleckchem, cat. S1067), and 10 nM gastrin (Tocris Bioscience, cat. 3006). […]

[1] = second compound 0.0316 µM, first compound 0.0316 µM
[2] = second compound 0.0316 µM, first compound 0.1 µM
[3] = second compound 0.0316 µM, first compound 0.316 µM
[4] = second compound 0.0316 µM, first compound 1 µM
[5] = second compound 0.0316 µM, first compound 3.16 µM
[6] = second compound 0.0316 µM, first compound 10 µM
[7] = second compound 0.1 µM, first compound 0.0316 µM
[8] = second compound 0.1 µM, first compound 0.1 µM
[9] = second compound 0.1 µM, first compound 0.316 µM
[10] = second compound 0.1 µM, first compound 1 µM
[11] = second compound 0.1 µM, first compound 3.16 µM
[12] = second compound 0.1 µM, first compound 10 µM
[13] = second compound 0.316 µM, first compound 0.0316 µM
[14] = second compound 0.316 µM, first compound 0.1 µM
[15] = second compound 0.316 µM, first compound 0.316 µM
[16] = second compound 0.316 µM, first compound 1 µM
[17] = second compound 0.316 µM, first compound 3.16 µM
[18] = second compound 0.316 µM, first compound 10 µM
[19] = second compound 1 µM, first compound 0.0316 µM
[20] = second compound 1 µM, first compound 0.1 µM
[21] = second compound 1 µM, first compound 0.316 µM
[22] = second compound 1 µM, first compound 1 µM
[23] = second compound 1 µM, first compound 3.16 µM
[24] = second compound 1 µM, first compound 10 µM
[25] = second compound 3.16 µM, first compound 0.0316 µM
[26] = second compound 3.16 µM, first compound 0.1 µM
[27] = second compound 3.16 µM, first compound 0.316 µM
[28] = second compound 3.16 µM, first compound 1 µM
[29] = second compound 3.16 µM, first compound 3.16 µM
[30] = second compound 3.16 µM, first compound 10 µM
[31] = second compound 10 µM, first compound 0.0316 µM
[32] = second compound 10 µM, first compound 0.1 µM
[33] = second compound 10 µM, first compound 0.316 µM
[34] = second compound 10 µM, first compound 1 µM
[35] = second compound 10 µM, first compound 3.16 µM
[36] = second compound 10 µM, first compound 10 µM
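Further: spheroids exposed to agents for seven days before readout.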

## CCC(CC)c1cc(NC2CCC(N)C2)n2nccc2n1 (stereo unspecified) + C#Cc1c(F)ccc2cc(O)cc(-c3ncc4c(N5CC6CCC(C5)N6)nc(OCC56CCCN5CC(F)C6)nc4c3F)c12
Second compound 0.0316 µM
  pIC50: 5.74
Second compound 0.1 µM
  pIC50: 5.75
Second compound 0.316 µM
  pIC50: 5.77
Second compound 1 µM
  pIC50: 5.79
Second compound 3.16 µM
  pIC50: 5.98
Second compound 10 µM
  pIC50: > 7.50
[1]
  viability, T/C: 108%
[2]
  viability, T/C: 126%
[3]
  viability, T/C: 109%
[4]
  viability, T/C: 98.1%
[5]
  viability, T/C: 3.47%
[6]
  viability, T/C: 3.41%
[7]
  viability, T/C: 99.1%
[8]
  viability, T/C: 98.2%
[9]
  viability, T/C: 109%
[10]
  viability, T/C: 97.4%
[11]
  viability, T/C: 2.92%
[12]
  viability, T/C: 2.14%
[13]
  viability, T/C: 97.1%
[14]
  viability, T/C: 103%
[15]
  viability, T/C: 107%
[16]
  viability, T/C: 91.1%
[17]
  viability, T/C: 3.17%
[18]
  viability, T/C: 3.38%
[19]
  viability, T/C: 74.2%
[20]
  viability, T/C: 83.7%
[21]
  viability, T/C: 85.7%
[22]
  viability, T/C: 90.2%
[23]
  viability, T/C: 3.62%
[24]
  viability, T/C: 2.6%
[25]
  viability, T/C: 43.4%
[26]
  viability, T/C: 46.1%
[27]
  viability, T/C: 50.1%
[28]
  viability, T/C: 68.2%
[29]
  viability, T/C: 3.28%
[30]
  viability, T/C: 2.71%
[31]
  viability, T/C: 15.4%
[32]
  viability, T/C: 18.1%
[33]
  viability, T/C: 24.3%
[34]
  viability, T/C: 33.3%
[35]
  viability, T/C: 2.78%
[36]
  viability, T/C: 2.37%

## Cc1nc(N2CCC3(CC2)COC(C)C3N)c(CO)nc1Sc1ccnc(N)c1Cl (stereo unspecified) + C#Cc1c(F)ccc2cc(O)cc(-c3ncc4c(N5CC6CCC(C5)N6)nc(OCC56CCCN5CC(F)C6)nc4c3F)c12
Second compound 0.0316 µM
  pIC50: 6.99
Second compound 0.1 µM
  pIC50: 6.98
Second compound 0.316 µM
  pIC50: 7.31
Second compound 1 µM
  pIC50: > 7.50
Second compound 3.16 µM
  pIC50: > 7.50
Second compound 10 µM
  pIC50: > 7.50
[1]
  viability, T/C: 64.5%
[2]
  viability, T/C: 50.2%
[3]
  viability, T/C: 33.5%
[4]
  viability, T/C: 22.3%
[5]
  viability, T/C: 19%
[6]
  viability, T/C: 17.5%
[7]
  viability, T/C: 59.5%
[8]
  viability, T/C: 51.5%
[9]
  viability, T/C: 29.6%
[10]
  viability, T/C: 20%
[11]
  viability, T/C: 14.9%
[12]
  viability, T/C: 14%
[13]
  viability, T/C: 54.6%
[14]
  viability, T/C: 42.8%
[15]
  viability, T/C: 21.3%
[16]
  viability, T/C: 13.1%
[17]
  viability, T/C: 11.4%
[18]
  viability, T/C: 10.8%
[19]
  viability, T/C: 41.6%
[20]
  viability, T/C: 25.7%
[21]
  viability, T/C: 15.7%
[22]
  viability, T/C: 7.73%
[23]
  viability, T/C: 8.67%
[24]
  viability, T/C: 8.04%
[25]
  viability, T/C: 24.1%
[26]
  viability, T/C: 13.5%
[27]
  viability, T/C: 11%
[28]
  viability, T/C: 7.3%
[29]
  viability, T/C: 6.6%
[30]
  viability, T/C: 5.45%
[31]
  viability, T/C: 10.5%
[32]
  viability, T/C: 8.85%
[33]
  viability, T/C: 6.18%
[34]
  viability, T/C: 5.37%
[35]
  viability, T/C: 3.83%
[36]
  viability, T/C: 3.85%

## NC1c2ccccc2OC12CCN(c1cnc3c(N4CCCc5ncccc54)n[nH]c3n1)CC2 (stereo unspecified) + C#Cc1c(F)ccc2cc(O)cc(-c3ncc4c(N5CC6CCC(C5)N6)nc(OCC56CCCN5CC(F)C6)nc4c3F)c12
Second compound 0.0316 µM
  pIC50: > 7.50
Second compound 0.1 µM
  pIC50: > 7.50
Second compound 0.316 µM
  pIC50: > 7.50
Second compound 1 µM
  pIC50: > 7.50
Second compound 3.16 µM
  pIC50: > 7.50
Second compound 10 µM
  pIC50: > 7.50
[1]
  viability, T/C: 34.9%
[2]
  viability, T/C: 25.9%
[3]
  viability, T/C: 18.1%
[4]
  viability, T/C: 14.8%
[5]
  viability, T/C: 17.4%
[6]
  viability, T/C: 15.8%
[7]
  viability, T/C: 36.4%
[8]
  viability, T/C: 23.2%
[9]
  viability, T/C: 16.8%
[10]
  viability, T/C: 13.9%
[11]
  viability, T/C: 12.5%
[12]
  viability, T/C: 12.4%
[13]
  viability, T/C: 28.2%
[14]
  viability, T/C: 18.1%
[15]
  viability, T/C: 11.8%
[16]
  viability, T/C: 8.85%
[17]
  viability, T/C: 10.4%
[18]
  viability, T/C: 8.35%
[19]
  viability, T/C: 17.7%
[20]
  viability, T/C: 11.2%
[21]
  viability, T/C: 8.78%
[22]
  viability, T/C: 7.65%
[23]
  viability, T/C: 5.83%
[24]
  viability, T/C: 5.6%
[25]
  viability, T/C: 9.96%
[26]
  viability, T/C: 7.32%
[27]
  viability, T/C: 5.29%
[28]
  viability, T/C: 4.36%
[29]
  viability, T/C: 4.13%
[30]
  viability, T/C: 5.5%
[31]
  viability, T/C: 7.06%
[32]
  viability, T/C: 4.42%
[33]
  viability, T/C: 3.79%
[34]
  viability, T/C: 3.47%
[35]
  viability, T/C: 4%
[36]
  viability, T/C: 4.4%
